Results from US6352718B1, “Vasopressin antagonist formulation and process” (American Cyanamid Company, priority 1999, dated 2002).

Assay: Solubility in orally acceptable oils and aqueous systems
Format: physicochemical
Conditions: in conventional, orally acceptable oils, such as safflower or sesame seed oils, and in aqueous systems

Question: Which solubility does the source give for Cc1ccc(F)cc1C(=O)Nc1ccc(C(=O)N2Cc3cccn3Cc3ccccc32)c(Cl)c1 [VPA-985, N-[4-(5H-pyrrolo[2,1-c][1,4]benzodiazepin-10(11H)ylcarbonyl)-3-chlorophenyl]-5-fluoro-2-methylbenzamide] here?
Answer: The solubility was “highly insoluble”.
